Where “and” joins values, the source holds several entries; their conditions need not be identical. Identical values can stand only once.
Assays:
[1] = system: Capan-1, SW620, AsPC-1, HPAC, NCI-H358, PSN1, HUPT3, HCT 116, Hs 766T, SK-MEL-30, KU1919, NCI-H1975, A375; experiment: Proliferation (CTG) in human cancer cell lines; type: cell-based
Method: Data points show biological duplicates normalized to vehicle control. […] Data points show biological duplicates normalized to vehicle control from 1 of 2–26 independent experiments. Source Data
(§1) Alternatively, cells were seeded in round-bottom ultra-low attachment 96-well plates, centrifuged at 1,000 rpm for 10 min to pellet the cells, and incubated overnight or up to 72 h to allow for 3D spheroid formation. […] Cell viability was determined by CellTiter-Glo 2.0 reagent (2D CTG) (Promega, G9243) or 3D CellTiter-Glo reagent (3D CTG) (Promega, G9683) according to the manufacturer’s protocols. Luminescence was detected using a SpectraMax M5 Plate Reader (Molecular Devices) of Perkin Elmer Enspire. Luminescence signal was normalized to vehicle-treated wells (normalized signal (%) = (luminescence (treated)/mean luminescence (vehicle)) × 100%). […] Data were plotted as log [inhibitor (M)], and a four-parameter sigmoidal concentration response model was fitted to the data to calculate EC50. […] Pa16C MEK1 mutant cells were evaluated by live-cell counting using Calcein AM and a SpectraMax i3X multi-mode detection platform (Molecular Devices). Growth percentages were calculated by normalizing the treated cell counts to their respective untreated cell counts.

A375 cells = experiment: Cell proliferation (CTG); type: cell-based, human
Method: as §1

KRAS^G12V = KRAS^G12V (Homo sapiens, UniProt P01116+P62937, G12V); experiment: Cellular RAS–RAF (CRAF RBD) disruption, nano-BRET in U2OS cells; type: cell-based; set-up: expressed in transfected cells; host or cells: U2OS PPIA-KO; Cellular RAS-RAF disruption G12V / Cellular nano-BRET G12V: scale not given here
Excerpt: KRAS4B, or other small GTPases, containing the indicated mutations were cloned in pNLF-N or pHTN plasmids for expression with an N-terminal nanoluciferase or HaloTag fusion, respectively. […] The following day, the cells were collected by Trypsin and reseeded in a white tissue culture-treated 96-well plate in OptiMem phenol red-free medium (Gibco) containing 4% FBS and a 1:1,000 dilution of NanoBRET 618 HaloTag ligand (Promega). For endpoint concentration response curves, vivazine nanoluciferase substrate was added to 1× concentration in OptiMem phenol red-free medium with 4% FBS. Varying concentrations of inhibitor were added and incubated for 1 or 4 h before the nano-BRET signal was measured on a Perkin Elmer Envision plate reader. For kinetic assays, endurazine nanoluciferase substrate was used in place of vivazine, and the plate was placed in a Cytation5 multi-mode reader pre-equilibrated to 37 °C and 5% CO2.

[2] = Mouse blood and tumour pharmacokinetics in NCI-H441 tumour bearing mice; conditions: female, BALB/c nude, mouse, tumour, po, 10 mg/kg
Method: Tumour tissue samples were homogenized with a 10× volume of methanol/15 mM PBS (1:2, v:v). Sample preparation and analysis on a Sciex 6500+ triple quadrupole mass spectrometer equipped with an ACQUITY UPLC system were performed as previously described[12].
All datapoints shown, n = 3 per dose and timepoint.
Female BALB/c nude mice, NOD SCID and NSG mice 6-8 weeks old from Beijing Vital River/VR Laboratory Animal Co., LTD, Beijing AniKeeper Biotech Co., Ltd., Shanghai Sino-British SIPPR/BK Laboratory Animal Co., LTD and The Jackson Laboratory were used. Animals were housed in polycarbonate cages, in an environmentally monitored, well ventilated room maintained at a constant temperature of 20-26°C and relative humidity of 40-80%. Fluorescent lighting provided illumination approximately 12 hours per day. Each mouse was inoculated at the right flank with tumor cells (2x10^6-1x10^7) in 100-200 µL of media/PBS supplemented with Matrigel (1:1). Treatments were started when the average tumor size reached 100-250 mm^3. […] Mice on studies were weighed and tumor measurements collected twice weekly. […] Body weights were collected twice a week during the study. For single-dose pharmacokinetic/pharmacodynamics (PK/PD) study, mice were randomized into treatment groups when mean tumor volume reached 400-600 mm^3.

## CCn1c(-c2cc(N3CCN(C4CC4)CC3)cnc2[C@H](C)OC)c2c3cc(ccc31)-c1csc(n1)C[C@H](NC(=O)[C@H]1[C@@H]3COC[C@@H]31)C(=O)N1CCC[C@H](N1)C(=O)OCC(C)(C)C2 [RMC-7977]
[1]; ASPC1, RMC-7977 1.52 nM
  Cell proliferation (CellTiter-Glo): 68.8907 and 77.7752
[1]; ASPC1, RMC-7977 4.57 nM
  Cell proliferation (CellTiter-Glo): 54.6049 and 56.084
[1]; ASPC1, RMC-7977 13.72 nM
  Cell proliferation (CellTiter-Glo): 31.4521 and 36.2763
[1]; ASPC1, RMC-7977 41.15 nM
  Cell proliferation (CellTiter-Glo): 19.3277 and 20.3014
[1]; ASPC1, RMC-7977 123.46 nM
  Cell proliferation (CellTiter-Glo): 12.8203 and 13.4559
[1]; ASPC1, RMC-7977 370.39 nM
  Cell proliferation (CellTiter-Glo): 9.7785 and 11.4734
[1]; ASPC1, RMC-7977 1111.14 nM
  Cell proliferation (CellTiter-Glo): 8.521 and 9.0438
[1]; ASPC1, RMC-7977 3333.41 nM
  Cell proliferation (CellTiter-Glo): 6.811 and 10.0312
[1]; ASPC1, RMC-7977 10000.00 nM
  Cell proliferation (CellTiter-Glo): 5.308 and 5.788
[1]; CAPAN1, RMC-7977 1.52 nM
  Cell proliferation (CellTiter-Glo): 59.9636 and 63.7997
[1]; CAPAN1, RMC-7977 4.57 nM
  Cell proliferation (CellTiter-Glo): 35.7372 and 42.3141
[1]; CAPAN1, RMC-7977 13.72 nM
  Cell proliferation (CellTiter-Glo): 18.382 and 18.5053
[1]; CAPAN1, RMC-7977 41.15 nM
  Cell proliferation (CellTiter-Glo): 11.8827 and 13.681
[1]; CAPAN1, RMC-7977 123.46 nM
  Cell proliferation (CellTiter-Glo): 8.811 and 11.6796
[1]; CAPAN1, RMC-7977 370.39 nM
  Cell proliferation (CellTiter-Glo): 5.4975 and 10.0571
[1]; CAPAN1, RMC-7977 1111.14 nM
  Cell proliferation (CellTiter-Glo): 6.166 and 6.972
[1]; CAPAN1, RMC-7977 3333.41 nM
  Cell proliferation (CellTiter-Glo): 4.455 and 5.8786
[1]; HCT116, RMC-7977 4.00 nM
  Concentration-response, normalized signal (replicate wells): 82.5863 and 97.7262 and 86.8037 and 89.4627 and 85.957 and 97.0725 and 88.0274 and 98.1156 and 87.4457 and 99.4211 and 79.8906 and 84.8325
[1]; HCT116, RMC-7977 36.01 nM
  Concentration-response, normalized signal (replicate wells): 18.5896 and 19.6721 and 20.3034 and 20.9024 and 39.3935 and 41.5603 and 31.7309 and 32.7207 and 34.8483 and 44.0944 and 29.6731 and 29.9889
[1]; HCT116, RMC-7977 324.09 nM
  Concentration-response, normalized signal (replicate wells): 2.22 and 2.64 and 1.664 and 2.991 and 5.879 and 6.569 and 5.425 and 6.586 and 5.001 and 5.957 and 2.283 and 3.5458
[1]; HCT116, RMC-7977 972.25 nM
  Concentration-response, normalized signal (replicate wells): 1.618 and 2.167
[1]; cell line heading above the shown rows, RMC-7977 10000.00 nM
  Concentration-response, normalized signal (replicate wells): 4.998 and 6.7184
A375 cells; A375, BRAF^V600E, RAS-independent
  inhibition of proliferation: No inhibition
A375 cells; Homo sapiens, A-375, A375, CTG, (95% CI)
  EC50: 8.83 µM
KRAS^G12V; KRAS^G12V, CRAF RBD, nano-BRET, (95% CI)
  EC50: 0.00766 µM
KRAS^G12V; RMC-7977 0.0254 nM
  Cellular RAS-RAF disruption G12V: 100.00
KRAS^G12V; RMC-7977 0.05 nM
  Cellular RAS-RAF disruption G12V: 95.09 and 96.3702
KRAS^G12V; RMC-7977 0.08 nM
  Cellular RAS-RAF disruption G12V: 99.62
KRAS^G12V; RMC-7977 0.23 nM
  Cellular RAS-RAF disruption G12V: 93.81
KRAS^G12V; RMC-7977 0.46 nM
  Cellular RAS-RAF disruption G12V: 63.26 and 77.9214
KRAS^G12V; RMC-7977 2.06 nM
  Cellular RAS-RAF disruption G12V: 66.75
KRAS^G12V; RMC-7977 4.12 nM
  Cellular RAS-RAF disruption G12V: 17.09 and 32.4499
KRAS^G12V; RMC-7977 12.35 nM
  Cellular RAS-RAF disruption G12V: 8.26 and 13.953
KRAS^G12V; RMC-7977 18.52 nM
  Cellular RAS-RAF disruption G12V: 13.89
KRAS^G12V; RMC-7977 37.04 nM
  Cellular RAS-RAF disruption G12V: 4 and 4.5731
KRAS^G12V; RMC-7977 55.56 nM
  Cellular RAS-RAF disruption G12V: 3.90
KRAS^G12V; RMC-7977 111.11 nM
  Cellular RAS-RAF disruption G12V: 1.99 and 1.6717
KRAS^G12V; RMC-7977 166.67 nM
  Cellular RAS-RAF disruption G12V: 0.38
KRAS^G12V; RMC-7977 500.00 nM
  Cellular RAS-RAF disruption G12V: 0.05
KRAS^G12V; calculated RMC-7977:CYPA complexes 1.95 nM
  Cellular nano-BRET G12V: 99.62
KRAS^G12V; calculated RMC-7977:CYPA complexes 34.93 nM
  Cellular nano-BRET G12V: 41.01 and 56.3646
KRAS^G12V; calculated RMC-7977:CYPA complexes 52.21 nM
  Cellular nano-BRET G12V: 66.75
KRAS^G12V; calculated RMC-7977:CYPA complexes 153.42 nM
  Cellular nano-BRET G12V: 36.46
KRAS^G12V; calculated RMC-7977:CYPA complexes 297.71 nM
  Cellular nano-BRET G12V: 8.26 and 13.953
KRAS^G12V; calculated RMC-7977:CYPA complexes 433.65 nM
  Cellular nano-BRET G12V: 13.89
KRAS^G12V; calculated RMC-7977:CYPA complexes 798.08 nM
  Cellular nano-BRET G12V: 4 and 4.5731
KRAS^G12V; calculated RMC-7977:CYPA complexes 1814.88 nM
  Cellular nano-BRET G12V: 1.99 and 1.6717
KRAS^G12V; calculated RMC-7977:CYPA complexes 2304.15 nM
  Cellular nano-BRET G12V: 0.38
KRAS^G12V; calculated RMC-7977:CYPA complexes 3597.12 nM
  Cellular nano-BRET G12V: 0.05
[2]
  AUC(0-t): 24300 ng·h/mL

— publication PMC11111408, “Concurrent inhibition of oncogenic and wild-type RAS-GTP for cancer therapy” (Nature, 2024)
